According to PMC8762250, “Identification of Novel Chemical Scaffolds that Inhibit the Growth of Mycobacterium tuberculosis in Macrophages” (Frontiers in Pharmacology, 2022):
Where two headings read alike, the source gives them in different places. Marks after values point to notes of the source that are not given here.

Assays:
[1] = tested on: M. tuberculosis; assay: High content assay of intracellular M. tuberculosis growth in infected RAW264.7 macrophages; assay type: cell-based, Mycobacterium tuberculosis H37Rv-LP
Protocol: Compounds were obtained in 384-well plates as 10 mM DMSO stock solutions and tested as described ([Manning et al., 2017]). Briefly, assay plates were prepared in clear bottom, black 384-well plates with 30 μl cRPMI and 0.6 μl compound in columns 3–22 (final concentration of 10 μM compound, 1% DMSO). […] INH and STA were also included in dose response on each plate. RAW264.7 cells were infected with M. tuberculosis DREAM8 as described ([Manning et al., 2017]) at an MOI of 1 for 24 h and extracellular bacteria removed by washing. Cells were recovered using Accumax, harvested, washed and resuspended in serum-free RPMI; 30 μl of infected cells were dispensed into each well at 3,300 cells/well. Plates were incubated for 72 h, 10 μl of 5X SYBR Green I was added and plates were imaged with an ImageXpress Micro High Content Screening System (Molecular Devices) using a ×4 objective and FITC and Texas Red channels. MetaXpress was used to analyze images. The integrated intensity of M. tuberculosis or macrophages was calculated for each well. Growth inhibition was calculated for each test well by normalizing to the average integrated intensity of the DMSO control wells. IC50 was calculated as the compound concentration required to reduce bacterial growth by 50%. TC50 was calculated as the compound concentration required to reduce macrophage viability by 50%.

[2] = tested on: M. tuberculosis; assay: Minimum inhibitory concentration in liquid medium (axenic culture); assay type: cell-based, Mycobacterium tuberculosis; conditions: Mycobacterium tuberculosis; for IC50: read-out: Anti-tubercular activity in axenic culture IC50
[3] = tested on: RAW264.7 cells; assay: Macrophage viability in the same high content assay; conditions: for Intracellular activity Cytotoxicity TC50 / Intracellular RAW TC50: infected RAW264.7 macrophages; for Intracellular activity Cytotoxicity TC50: 72 h; for Intracellular RAW TC50: SAR tables 4-8; for selectivity index (TC50/IC50): macrophage TC50 / intracellular IC50; for selectivity index (SI): HepG2 cells and/or macrophages, cell line not specified
[4] = tested on: HepG2 cells; assay: HepG2 cytotoxicity (CellTiter-Glo, 72 h); assay type: cell-based, human; conditions: for HepG2 cytotoxicity TC50 Galactose / HepG2 cytotoxicity TC50 Glucose: human, 72 h; for selectivity (SI) for HepG2: HepG2 cytotoxicity / intracellular IC50
Protocol: (§1) Cytotoxicity against HepG2 cells was measured after 72 h. Cells were seeded in 384-well plates at 1,800 cells per well. Compounds were added as a 10-point three-fold serial dilution after 24 h (final assay concentration of 1% DMSO). CellTiter-Glo® reagent (Promega) was added and relative luminescence units (RLU) measured. Data were normalized to the DMSO controls. Curves were fitted using the Levenberg–Marquardt algorithm; TC50 was calculated as the compound concentration required to reduce cell viability by 50%.
(§2) We further evaluated cytotoxicity using the HepG2 cell line cultured with either glucose or galactose in the medium (Table 2). HepG2 cells cultured with galactose rely on mitochondrial oxidative phosphorylation rather than glycolysis which increases their susceptibility to mitochondrial toxicants allowing us to identify compounds with mitochondrial toxicity ([Kamalian et al., 2015]).

[5] = HepG2 cytotoxicity (CellTiter-Glo, 72 h); assay type: cell-based, human; conditions: human
Protocol: as §1, §2

[6] = Mycobacterium tuberculosis, RAW264.7, 72 h, M. tuberculosis in RAW264.7 cells, MOI 1, 72 h, read-out: Intracellular activity Anti-tubercular activity IC50
[7] = Mycobacterium tuberculosis, RAW264.7, in RAW264.7 macrophages, SAR tables 4-8, read-out: Intracellular Mtb IC50
[8] = 120 h, extracellular, 5 days, OD590
[9] = 120 h, extracellular, 5 days, OD590, read-out: Anti-tubercular activity in axenic culture IC90
[10] = axenic culture, SAR tables 4-8, read-out: Extracellular IC90
[11] = HepG2 cytotoxicity IC50 Galactose
[12] = HepG2 cytotoxicity IC50 Glucose
[13] = Mycobacterium tuberculosis, RAW264.7, read-out: Intracellular Mtb IC50, in RAW264.7 macrophages, SAR tables 4-8
[14] = in RAW264.7 macrophages, SAR tables 4-8, read-out: Intracellular Mtb IC50

SMILES	IC50 [1, 6] [µM]	IC50 [1, 7] [µM]	IC50 [2, 8] [µM]	IC90 [2, 9] [µM]	IC90 [2, 10] [µM]	Intracellular activity Cytotoxicity TC50 [3]	Intracellular RAW TC50 [3]	HepG2 cytotoxicity TC50 Galactose [4]	HepG2 cytotoxicity TC50 Glucose [4]	IC50 at 72 h [5, 11] [µM]	IC50 at 72 h [5, 12] [µM]	activity against intracellular M. tuberculosis [1]	IC50 ([1]; in RAW264.7 macrophages, SAR tables 4-8, listed as 27, read-out: Intracellular Mtb IC50) [µM]	IC50 [1, 13] [µM]	selectivity index (TC50/IC50) [3]	IC50 [1, 14] [µM]	selectivity index (SI) [3]	selectivity (SI) for HepG2 [4]	IC50 ([1]; in RAW264.7 macrophages, SAR tables 4-8, listed as 29, read-out: Intracellular Mtb IC50) [µM]	Intracellular RAW TC50 ([3]; listed as 17) [µM]
CCc1ccc(OCC(=O)Nc2cccc3c2C(=O)OC3)cc1 [TPN-0006204]	11 ± 0.5	10 ± 0.5	> 20	> 20	> 20	>100 ^b µM	>100 ^a µM	47 ± 17 ^e µM	59 ± 10 ^d µM	47 ± 17	59 ± 10									
Nc1c(C(=O)c2ccc(F)cc2)sc2nc(-c3ccccc3)cc(-c3ccccc3)c12 [TPN-0073026]		> 100			> 20		>100 ^a µM			> 100	> 100	not active								
O=C(Nc1ccc(Cl)c(Cl)c1)c1cccs1 [TPN-0073578]	1.7 ± 0.85		> 20	> 20	> 20	11 ± 2.2 ^d µM	11 ± 2.2 ^c µM	4.7 ± 0.54 ^c µM	3.9 ± 1.1 ^c µM	4.7 ± 0.5	3.9 ± 1.1		< 5							
CCOc1ccc(NC(=S)Nc2ccccc2)cc1 [TPN-0073062]	0.39 ± 0.13		11 ± 5.3	> 20	> 20	>100 ^d µM	>100 ^d µM	>100 ^e µM	>100 ^e µM	> 100	> 100			0.4 ± 0.1	> 250					
O=C(CSc1ccccc1)Nc1ccc(Br)cc1 [TPN-0006205]	1.4 ± 0.64	1.4 ± 0.6	> 20	> 20	> 20	57 ± 23 ^c µM	57 ± 24 ^c µM	>100 ^c µM	>100 ^e µM	> 100	> 100	good intracellular activity			40					
Nc1c(C(=O)N2CCCC2)sc2nc(-c3ccccc3)ccc12 [TPN-0073027]	5.8 ± 2.1	< 10	> 20	> 20	> 20	>100e µM	>100 ^g µM	64 ± 10 ^e µM	82 ± 25 ^d µM	64 ± 12	72 ± 22					6.8 ± 3.3				
COC(=O)c1c(NC(NC(=O)c2cccs2)C(=O)c2ccccc2)sc(C(C)=O)c1C (stereo not drawn) [TPN-0073588]	6.5 ± 1.7	6.5 ± 1.7	> 20	> 20	> 20	67 ± 8.5 ^b µM	67 ± 8.5 ^b µM	>100 ^c µM	>100 ^b µM	> 100	93 ± 5.5						> 10	15		
O=C(CSc1ccccn1)Nc1ccc(F)c(F)c1 [TPN-0006203]		7.8 ± 1.6			> 20		>100 ^b µM			> 100	> 100	good intracellular activity								
Cc1cc(OCC(=O)N2CCC(C)CC2)ccc1Br [TPN-0006213]		6.6 ± 1.6			> 20		75 ± 16 ^b µM			55 ± 5	93 ± 3.5									
O=C(COc1ccc(Br)cc1)N1CCN(c2ccccc2F)CC1 [TPN-0006215]		12 ± 1.6			> 20		60 ± 27 ^b µM			57 ± 3	96 ± 2.5									
CCc1ccccc1NC(=O)c1c(NC(=O)c2cccc(Cl)c2)sc2c1CCC2 [TPN-0073585]	0.4 ± 0.11		> 5	> 5	> 5	9.4 ± 1.9 ^c µM	9.4 ± 1.9 ^c µM	>25 ^c µM	>25 ^c µM	> 25	> 25						> 10	> 60	< 5	
CCN(CC)C(=O)c1sc2nc(-c3ccccc3)ccc2c1N [TPN-0073025]		< 10			> 20		30 ± 6.6 ^f µM			42	61 ± 48	weak activity				9 ± 6.6				
Nc1c(C(=O)N2CCCCC2)sc2nc3c(cc12)CCCC3 [TPN-0073024]		62 ± 31			> 20		>100 ^b µM			> 100	> 100									
COCc1cc(C)nc2sc(C(=O)Nc3cccc(Cl)c3)c(N)c12 [TPN-0073022]		> 100			> 20		15 ± 9 ^b µM			64	51	not active								
OCc1cn(-c2ccccc2)nc1-c1ccc(Br)cc1 [TPN-0073563]	4.7 ± 1.1	4.3 ± 1.5				28 ± 7.0 ^e µM	28 ± 7.0 ^e µM	34 ± 1.9 ^c µM	34 ± 0 ^c µM	35 ± 3.7	34									
COCc1cc(C)nc2sc(C(=O)c3ccccc3)c(N)c12 [TPN-0073023]		17 ± 6.5			> 20		67 ± 18 ^d µM			49	68 ± 1									
Cc1ccc(OCC(=O)Nc2ccc(N3CCCCC3)c(Cl)c2)cc1 [TPN-0006206]			> 20	> 20	> 20	57 ± 20 ^b µM	57 ± 20 ^c µM	>100 ^b µM	>100 ^b µM	> 100	> 100									
Nc1c(C(=O)Nc2nccs2)sc2nc3c(cc12)CCC3 [TPN-0073030]					> 20		>100 ^c µM			> 100	> 100			1.1						
O=C(Nc1ccc(C(F)(F)F)cc1)Nc1cccc(Cl)c1 [TPN-0073070]		0.7 ± 0.2			15		1.8 ± 0.5 ^b µM			5.5	5.6									1.8
O=C(COc1ccc2ccccc2c1)Nc1ccncc1 [TPN-0006212]		8.2 ± 1.7			> 20		>100 ^b µM			61 ± 4	> 100									
OCc1cn(-c2ccc(F)cc2)nc1-c1ccc(Cl)cc1 [TPN-0073583]		5.8 ± 0.4			> 20		>100 ^d µM			57 ± 28	66 ± 29									
